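Assay format: 96-well plates, 48-hour exposure. Abbreviation: GI50, concentration required for 50% inhibition of growth. Definition used: TGI = concentration required for complete inhibition of growth.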
Tests used:
Test in all cases: NCI anticancer screen, dose series, 48 h
[1] = system: SNB-19 CNS
[2] = system: ACHN renal
[3] = system: HCT-15 colon
[4] = system: K-562 leukemia
[5] = system: SF-539 CNS
[6] = system: RPMI-8226 leukemia
[7] = system: SW-620 colon
[8] = system: SK-MEL-5 melanoma
[9] = system: UACC-62 melanoma
[10] = system: BT-549 breast

Compound	GI50 [1]	TGI [1]	GI50 [2]	TGI [2]	GI50 [3]	TGI [3]	GI50 [4]	TGI [4]	GI50 [5]	TGI [5]	TGI [6]	TGI [7]	TGI [8]	TGI [9]	GI50 [6]	GI50 [7]	GI50 [8]	GI50 [9]	GI50 [10]	TGI [10]
COc1ccc(-c2nc(N)c(C#N)c3c2CCOc2c-3ccc3ccccc23)cc1	24.2 µM	91 µM	10.1 µM	22.6 µM	59.4 µM	> 100 µM	> 100 µM	> 100 µM	21.2 µM	52.6 µM										
CCC(=O)C(C(=O)CC)c1c(OC(=O)c2ccccc2)ccc(O)c1C(=O)OC		> 100 µM		> 100 µM		> 100 µM		> 100 µM		> 100 µM	> 100 µM	> 100 µM	> 100 µM	> 100 µM						
C/C(CC(=O)Nc1ccc(NC(=O)C/C(C)=N\NC(N)=O)cc1)=N/NC(N)=O		> 100 µM		> 100 µM		> 62.5 µM		> 100 µM		> 100 µM	55.5 µM	> 100 µM	> 100 µM	> 100 µM						
CC/C(Cc1ccccc1)=C(/c1ccc(O)cc1)c1ccc(OCCN2CCCC2)cc1	1.97 µM	3.93 µM	1.83 µM	3.39 µM	1.51 µM	3.08 µM	1.2 µM	3.41 µM	1.67 µM	3.21 µM	4.67 µM	3.63 µM	3.08 µM	4.12 µM	2.1 µM	1.84 µM	1.7 µM	2.03 µM		
Cc1ccc(O)c(NC2=C(Cl)C(=O)N(Cc3ccccc3)C2=O)c1	46 µM	> 100 µM	32.4 µM	> 100 µM	25.3 µM	72.6 µM	12.4 µM	59.6 µM			36.6 µM	> 100 µM	40.7 µM	36.8 µM	7.7 µM	32.5 µM	21.1 µM	17 µM	18.1 µM	67.3 µM
CC1(C)C(=O)C(=Cc2ccco2)C1=O				> 100 µM		> 100 µM		> 100 µM		> 100 µM	> 100 µM	> 100 µM	> 100 µM	> 100 µM						
CCC(C)(O)c1cn(-c2ccc(S(=O)(=O)O)cc2)nn1 (stereo unspecified)		> 100 µM		> 100 µM		> 100 µM		> 100 µM		> 100 µM	> 100 µM	> 100 µM	> 100 µM	> 100 µM						
COc1cc(NC(C)CCCNC(C)C)c2ncccc2c1OC (stereo unspecified)	> 100 µM	> 100 µM	> 100 µM	> 100 µM	> 100 µM	> 100 µM	32.8 µM	> 100 µM	> 100 µM	> 100 µM		> 100 µM	> 100 µM	> 100 µM		97.1 µM	> 100 µM	> 100 µM		
O=C1Nc2ccccc2/C1=C/c1cn(CC(O)Cn2cc(/C=C3\C(=O)Nc4ccccc43)c3ccccc32)c2ccccc12 (stereo unspecified)	1.21 µM	3.82 µM	1.63 µM	3.91 µM	1.77 µM	3.71 µM	1.19 µM	3.56 µM	1.55 µM	3.11 µM	5.41 µM	3.48 µM	3.82 µM	3.16 µM	2.1 µM	1.34 µM	1.98 µM	1.64 µM		
c1cc[c]([Sn]([O]c2cccc3cccnc23)([O]c2cccc3cccnc23)[c]2ccccc2)cc1			0.207 µM	0.396 µM	0.186 µM	0.377 µM	0.221 µM	0.631 µM	0.385 µM	1.32 µM			0.593 µM	0.502 µM			0.245 µM	0.223 µM		
O=c1c2cccnc2ncn1CCCN1CCCC1		> 100 µM		> 100 µM				> 100 µM		> 100 µM		> 100 µM	> 100 µM	> 100 µM						
COc1ccc2c(c1)[n+](=O)c(C(=O)CC(=O)C(=O)Nc1cccc(C)c1C)c(C)n2[O-]		> 100 µM		> 100 µM		> 100 µM		> 100 µM		> 100 µM	> 100 µM	> 100 µM	> 100 µM	> 100 µM						
COc1cc2c3c(c1OC)C(=O)C=C3N(S(=O)(=O)c1ccc(C)cc1)CC2		> 100 µM		> 100 µM		> 100 µM		> 100 µM		> 100 µM	> 100 µM	> 100 µM	> 100 µM	> 100 µM						
Cc1nc(Sc2nc3ccc([N+](=O)[O-])cc3s2)sc1C	8.41 µM	21.9 µM	1.61 µM	3.81 µM	0.731 µM	3.51 µM	0.429 µM	8.97 µM			6.52 µM	3.53 µM	4.58 µM	3.49 µM	1.8 µM	0.482 µM	1.67 µM	1.22 µM	0.989 µM	2.85 µM
O=C(NC(=O)c1cn(CCN2CCN(C(=O)NCCCCCCNC(=O)N3CCN(CCn4cc(C(=O)NC(=O)OCc5ccccc5)c(=O)[nH]c4=O)CC3)CC2)c(=O)[nH]c1=O)OCc1ccccc1		> 100 µM		> 100 µM		> 100 µM		> 100 µM		> 100 µM	> 100 µM	> 100 µM	> 100 µM	> 100 µM						
CC12OC(C(=O)C13CCC3)C1C(=O)c3ccc4c(ccc5ccccc54)c3C(=O)C12 (stereo unspecified)	21.5 µM	65.7 µM	6.78 µM	21.4 µM	4.27 µM	22.4 µM	3.27 µM	16 µM	11.1 µM	66.8 µM				> 100 µM				35.4 µM	18.3 µM	48.4 µM
COC(=O)/C(=C/c1ccc(OC)cc1)C(C(=O)O)=C1CCCCC1		> 100 µM		> 100 µM		> 100 µM		> 100 µM		> 100 µM	> 100 µM	> 100 µM	> 100 µM	> 100 µM						
C=C(CO)CC(/C=C(\C)CC/C=C(\C)CCl)OC(C)=O (stereo unspecified)		> 100 µM		> 100 µM		> 100 µM		> 100 µM		> 100 µM	> 100 µM	> 100 µM	> 100 µM	> 100 µM						

— PubChem BioAssay (NCI)
